These results are taken from US7070811B2, “Directly compressible formulations of azithromycin” (Pfizer Inc., priority 2001, dated 2006).

Data set [1] can be described thus: Carr's Compressibility Index from initial and tapped density. Type of data set: physicochemical. To be noted: for Carr's Index: blend with ˜60% drug loading. The method, then: Carr's Compressibility Index is a simple test to evaluate flowability by comparing both the initial and final (tapped) densities and the rate of packing down. A useful empirical guide to flow is given by Carr's compressibility index: Compressibility Index(%)=[(tapped density−initial density)/tapped density]×100
Carr's Compressibility Index of the azithromycin bulk was measured by taking an initial density of a 15 gram sample in a 100 ml graduated cylinder. The sample was tapped 2000 times on a VanKel Tap Density Tester (Model 50-1200, Edison, N.J.) and the tapped density of the 15 gram sample in the 100 ml graduated cylinder was taken. The procedure is described in Int. J. Pharm. Tech. & Prod. Mfr., 6(3) 10–16, 1985.
The ingredients were weighed (except for the magnesium stearate), combined and blended in a low shear blender for 30 minutes. The blend was passed through a U.S. standard No. 20 or No. 25 mesh screen to delump the blend. The screened blend was returned to the blender and blended for an additional 30 minutes. Prior to the addition of the magnesium stearate, the initial and tapped densities of the blend were determined from which a Carr's Compressibility Index for flow was calculated for the blend. Magnesium stearate was then added to the blend, after which it was blended for an additional five minutes.

The nature of data set [2]: Indices of Tableting Performance (Hiestand and Smith). The class given is physicochemical. To be noted: bulk azithromycin; for Brittle Fracture Index (BFI): Lots 1, 2 and 4 milled (Fitzmill, 0.027" screen, knives, high speed) for this test; for Strain Index (SI) / Tensile Strength / Worst Case Bonding Index (BLw) × 10^2: Lots 1, 2 and 4 milled for this test. As to the method:
Indices of tableting performance, for several azithromycin forms, were assessed to identify any mechanical deficiencies or attributes that may affect the ability to develop a direct compression tablet formulation of azithromycin. This assessment was performed in accordance with the procedures described in “Indices of Tableting Performance” H. E. N. Hiestand and D. P. Smith, Powder Technology 38 [1984] pp. 145–159.
More specifically, the Brittle Fracture Index, BFI, was calculated from the ratio of a material's regular tensile strength to its compromised tensile strength. Strain Index, SI, was determined from the dynamic indentation hardness test. Worst Case Bonding Index was determined by assessing the extent of particle bonding remaining after decompression assuming a very short compression dwell time and a plastic mechanism of particle separation during decompression.
Bulk azithromycin lots 1, 2, 4, 7, 10 and 11 are different crystalline forms, respectively, forms N, M, G, A, F and J. Lots 1, 2 and 4 were milled with a Fitzmill (Model JT, The Fitzpatrick Co., Elmhurst, Ill.) using a 0.027″ screen and knives at high speed in an attempt to match the smaller particle size of Lot 7. Lots 10 and 11 were evaluated as is due to their relatively small particle sizes.

SMILES strings stand for the structures.

`CC[C@H]1OC(=O)[C@H](C)[C@@H](O[C@H]2C[C@@](C)(OC)[C@@H](O)[C@H](C)O2)[C@H](C)[C@@H](O[C@@H]2O[C@H](C)C[C@H](N(C)C)[C@H]2O)[C@](C)(O)C[C@@H](C)CN(C)[C@H](C)[C@@H](O)[C@]1(C)O` [Lot 6, azithromycin]: the “Carr's Compressibility Index” value in data set [1] (blend of 59.3 wt % azithromycin without glidant) is reported as 30.

Consider `CC[C@H]1OC(=O)[C@H](C)[C@@H](O[C@H]2C[C@@](C)(OC)[C@@H](O)[C@H](C)O2)[C@H](C)[C@@H](O[C@@H]2O[C@H](C)C[C@H](N(C)C)[C@H]2O)[C@](C)(O)C[C@@H](C)CN(C)[C@H](C)[C@@H](O)[C@]1(C)O` [Lot 7, azithromycin], for which, in data set [2] (listed as #7 Form A), the “Brittle Fracture Index (BFI)” value came to 0.10, the “Strain Index (SI)” value worked out at 0.0044, the “Tensile Strength” value stood at 0.99 Mpa and the “Worst Case Bonding Index (BLw) × 10^2” value is 0.9.

With `CC[C@H]1OC(=O)[C@H](C)[C@@H](O[C@H]2C[C@@](C)(OC)[C@@H](O)[C@H](C)O2)[C@H](C)[C@@H](O[C@@H]2O[C@H](C)C[C@H](N(C)C)[C@H]2O)[C@](C)(O)C[C@@H](C)CN(C)[C@H](C)[C@@H](O)[C@]1(C)O` [Lot 2, azithromycin], in data set [2] (listed as #2 Form M), the “Brittle Fracture Index (BFI)” value was 0.10, the “Strain Index (SI)” value was 0.0048, the “Tensile Strength” value is 0.79 Mpa and the “Worst Case Bonding Index (BLw) × 10^2” value came to 1.0.

`CC[C@H]1OC(=O)[C@H](C)[C@@H](O[C@H]2C[C@@](C)(OC)[C@@H](O)[C@H](C)O2)[C@H](C)[C@@H](O[C@@H]2O[C@H](C)C[C@H](N(C)C)[C@H]2O)[C@](C)(O)C[C@@H](C)CN(C)[C@H](C)[C@@H](O)[C@]1(C)O` [Lot 4, azithromycin]: in data set [2] (listed as #4 Form G), the “Strain Index (SI)” value is 0.0043, the “Tensile Strength” value worked out at 1.03 Mpa and the “Worst Case Bonding Index (BLw) × 10^2” value is recorded as 0.8.

With `CC[C@H]1OC(=O)[C@H](C)[C@@H](O[C@H]2C[C@@](C)(OC)[C@@H](O)[C@H](C)O2)[C@H](C)[C@@H](O[C@@H]2O[C@H](C)C[C@H](N(C)C)[C@H]2O)[C@](C)(O)C[C@@H](C)CN(C)[C@H](C)[C@@H](O)[C@]1(C)O` [Lot 8, azithromycin], in data set [1], the “Carr's Index” value stood at 37.

`CC[C@H]1OC(=O)[C@H](C)[C@@H](O[C@H]2C[C@@](C)(OC)[C@@H](O)[C@H](C)O2)[C@H](C)[C@@H](O[C@@H]2O[C@H](C)C[C@H](N(C)C)[C@H]2O)[C@](C)(O)C[C@@H](C)CN(C)[C@H](C)[C@@H](O)[C@]1(C)O` [Lot 10, azithromycin]: in data set [2] (listed as #10 Form F), the “Brittle Fracture Index (BFI)” value was found to be 0.37, the “Strain Index (SI)” value was 0.0041, the “Tensile Strength” value is on record as 1.62 Mpa and the “Worst Case Bonding Index (BLw) × 10^2” value is 0.9. In addition, the “Carr's Index” value in data set [1] was 34.

Turning to `CC[C@H]1OC(=O)[C@H](C)[C@@H](O[C@H]2C[C@@](C)(OC)[C@@H](O)[C@H](C)O2)[C@H](C)[C@@H](O[C@@H]2O[C@H](C)C[C@H](N(C)C)[C@H]2O)[C@](C)(O)C[C@@H](C)CN(C)[C@H](C)[C@@H](O)[C@]1(C)O` [Lot 11, azithromycin], in data set [2] (listed as #11 Form J), the “Brittle Fracture Index (BFI)” value is 0.11, the “Strain Index (SI)” value is reported as 0.0043, the “Tensile Strength” value came out at 0.69 Mpa and the “Worst Case Bonding Index (BLw) × 10^2” value is reported as 0.7.

Regarding `CC[C@H]1OC(=O)[C@H](C)[C@@H](O[C@H]2C[C@@](C)(OC)[C@@H](O)[C@H](C)O2)[C@H](C)[C@@H](O[C@@H]2O[C@H](C)C[C@H](N(C)C)[C@H]2O)[C@](C)(O)C[C@@H](C)CN(C)[C@H](C)[C@@H](O)[C@]1(C)O` [Lot 1, azithromycin], in data set [2] (listed as #1 Form N), the “Brittle Fracture Index (BFI)” value came out at 0.05, the “Strain Index (SI)” value was found to be 0.0044, the “Tensile Strength” value came to 0.75 Mpa and the “Worst Case Bonding Index (BLw) × 10^2” value is recorded as 0.7.
